Patent publication US10294202B2, “Pyrrolidinones as herbicides” (FMC Corporation, priority 2013, dated 2019)

Legend:
wheat = experiment: Test A pre-/postemergence herbicide test; type: in vivo, Triticum aestivum
Summary of the method: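 Both application timings used compounds in a non-phytotoxic solvent plus surfactant. Pre-emergence: soil sprayed directly after seeding into loam/sand. Post-emergence: foliage of 2–10 cm seedlings (1–2 leaves) sprayed. Injury rated ~10 days later, 0–100.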

rice = experiment: Test B flooded paddy test; type: in vivo, Oryza sativa; settings: 250 g ai/ha, Flood; scale of 0 to 100 where 0 is no effect and 100 is complete control
Summary of the method: (§1)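 Scoring: visual, compared with untreated controls, 0 = no effect through 100 = complete control, taken 13 to 15 days after treatment in the greenhouse. Compounds had been added to paddy water over soil flooded 3 cm deep at the plants' 2-leaf stage.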

sedge, umbrella = experiment: Test B flooded paddy test; type: in vivo, Cyperus difformis; settings: 250 g ai/ha, Flood; scale of 0 to 100 where 0 is no effect and 100 is complete control
Summary of the method: as §1

barnyardgrass = experiment: Test B flooded paddy test; type: in vivo, Echinochloa crus-galli; settings: 250 g ai/ha, Flood; scale of 0 to 100 where 0 is no effect and 100 is complete control
Summary of the method: as §1

blackgrass = experiment: Test C pre-/postemergence herbicide test; type: in vivo, Alopecurus myosuroides
Summary of the method: (§2)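 Herbicidal effect was judged by eye 13 to 15 days after treatment in the greenhouse, using a 0–100 scale against controls. Chemicals in a non-phytotoxic solvent with surfactant were sprayed onto planted loam/sand soil or onto plants 2 to 18 cm tall in a peat-based growing medium.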

wheat (winter wheat) = experiment: Test C pre-/postemergence herbicide test; type: in vivo, Triticum aestivum
Summary of the method: as §2

crabgrass, large = experiment: Test C pre-/postemergence herbicide test; type: in vivo, Digitaria sanguinalis
Summary of the method: as §2

johnsongrass = experiment: Test C pre-/postemergence herbicide test; type: in vivo, Sorghum halepense
Summary of the method: as §2

pigweed = experiment: Test C pre-/postemergence herbicide test; type: in vivo, Amaranthus retroflexus
Summary of the method: as §2

ragweed = experiment: Test C pre-/postemergence herbicide test; type: in vivo, Ambrosia elatior
Summary of the method: as §2

velvetleaf = experiment: Test C pre-/postemergence herbicide test; type: in vivo, Abutilon theophrasti
Summary of the method: as §2

[1] = Postemergence, 1000 g ai/ha, 0 to 100 scale (0 no effect, 100 complete control)
[2] = Preemergence, 1000 g ai/ha, visual rating on 0 to 100 scale (0 no effect, 100 complete control), approx. 10 days
[3] = Preemergence, 31 g ai/ha, scale 0 to 100 (0 no effect, 100 complete control)
[4] = Preemergence, 62 g ai/ha, scale 0 to 100
[5] = Preemergence, 125 g ai/ha, scale 0 to 100 (0 no effect, 100 complete control)
[6] = Preemergence, 250 g ai/ha, scale 0 to 100 (0 no effect, 100 complete control)
[7] = Postemergence, 31 g ai/ha, scale 0 (no effect) to 100 (complete control)
[8] = Postemergence, 62 g ai/ha, scale 0 to 100 (0 no effect, 100 complete control)
[9] = Postemergence, 125 g ai/ha, scale 0 to 100 (0 no effect, 100 complete control)
[10] = Postemergence, 250 g ai/ha, scale 0 to 100 (0 no effect, 100 complete control)
[11] = Postemergence, 125 g ai/ha, 0 to 100 scale, 0 no effect, 100 complete control
[12] = Postemergence, 500 g ai/ha, 0 to 100 scale (0 no effect, 100 complete control)
[13] = Preemergence, 125 g ai/ha, visual rating on 0 to 100 scale (0 no effect, 100 complete control)
[14] = preemergence, 500 g ai/ha, 0 to 100 scale

O=C1NCC(c2cc(F)c(F)c(F)c2)C1C(=O)Nc1ccccc1C(F)(F)F (racemic) [Compound 33]
Plant response rating, Wheat (wheat; [1]): 60
Plant response rating, Wheat (wheat; [2]): 50
Plant response rating, Rice (rice): 0
Plant response rating, Sedge, Umbrella (sedge, umbrella): 0
Plant response rating, Barnyardgrass (barnyardgrass): 0
Blackgrass plant response rating (blackgrass; [3]): 0
Plant response rating, Blackgrass (blackgrass; [4]): 0
Plant response rating, Blackgrass (blackgrass; [5]): 0
Plant response rating, Blackgrass (blackgrass; [6]): 5
Plant response rating, Wheat (wheat (winter wheat); [4]): 0
Plant response rating, Wheat (wheat (winter wheat); [5]): 35
Crabgrass, Large plant response rating (crabgrass, large; [3]): 95
Plant response rating, Crabgrass, Large (crabgrass, large; [4]): 98
Plant response rating, Crabgrass, Large (crabgrass, large; [5]): 100
Plant response rating, Crabgrass, Large (crabgrass, large; [6]): 100
Plant response rating, Johnsongrass (johnsongrass; [4]): 0
Plant response rating, Johnsongrass (johnsongrass; [5]): 0
Plant response rating, Pigweed (pigweed; [4]): 0
Plant response rating, Pigweed (pigweed; [5]): 0
Plant response rating, Ragweed (ragweed; [4]): 0
Plant response rating, Ragweed (ragweed; [5]): 0
Plant response rating, Velvetleaf (velvetleaf; [4]): 10
Plant response rating, Velvetleaf (velvetleaf; [5]): 10

O=C1NCC(c2cc(F)c(F)c(F)c2)C1C(=O)Nc1ccccc1F (racemic) [Compound 34]
Plant response rating, Wheat (wheat; [1]): 70
Plant response rating, Wheat (wheat; [2]): 60
Plant response rating, Rice (rice): 0
Plant response rating, Sedge, Umbrella (sedge, umbrella): 0
Plant response rating, Barnyardgrass (barnyardgrass): 0
Plant response rating, Blackgrass (blackgrass; [7]): 0
Plant response rating, Blackgrass (blackgrass; [8]): 0
Plant response rating, Blackgrass (blackgrass; [9]): 0
Plant response rating, Blackgrass (blackgrass; [10]): 0
Blackgrass plant response rating (blackgrass; [3]): 0
Plant response rating, Blackgrass (blackgrass; [4]): 0
Plant response rating, Blackgrass (blackgrass; [5]): 10
Plant response rating, Blackgrass (blackgrass; [6]): 45
Plant response rating, Wheat (wheat (winter wheat); [7]): 0
Plant response rating, Wheat (wheat (winter wheat); [8]): 0
Plant response rating, Wheat (wheat (winter wheat); [9]): 0
Plant response rating, Wheat (wheat (winter wheat); [10]): 0
Plant response rating, Wheat (wheat (winter wheat); [4]): 0
Plant response rating, Wheat (wheat (winter wheat); [5]): 35
Plant response rating, Crabgrass, Large (crabgrass, large; [7]): 0
Plant response rating, Crabgrass, Large (crabgrass, large; [8]): 30
Plant response rating, Crabgrass, Large (crabgrass, large; [9]): 40
Plant response rating, Crabgrass, Large (crabgrass, large; [10]): 60
Crabgrass, Large plant response rating (crabgrass, large; [3]): 95
Plant response rating, Crabgrass, Large (crabgrass, large; [4]): 98
Plant response rating, Crabgrass, Large (crabgrass, large; [5]): 100
Plant response rating, Crabgrass, Large (crabgrass, large; [6]): 100
Plant response rating, Johnsongrass (johnsongrass; [7]): 0
Plant response rating, Johnsongrass (johnsongrass; [8]): 0
Plant response rating, Johnsongrass (johnsongrass; [9]): 0
Plant response rating, Johnsongrass (johnsongrass; [10]): 0
Plant response rating, Johnsongrass (johnsongrass; [4]): 10
Plant response rating, Johnsongrass (johnsongrass; [5]): 10
Plant response rating, Pigweed (pigweed; [7]): 0
Plant response rating, Pigweed (pigweed; [8]): 0
Plant response rating, Pigweed (pigweed; [9]): 0
Plant response rating, Pigweed (pigweed; [10]): 10
Plant response rating, Pigweed (pigweed; [4]): 0
Plant response rating, Pigweed (pigweed; [5]): 0
Plant response rating, Ragweed (ragweed; [7]): 5
Plant response rating, Ragweed (ragweed; [8]): 5
Plant response rating, Ragweed (ragweed; [9]): 5
Plant response rating, Ragweed (ragweed; [10]): 5
Plant response rating, Ragweed (ragweed; [4]): 0
Plant response rating, Ragweed (ragweed; [5]): 0
Plant response rating, Velvetleaf (velvetleaf; [7]): 5
Plant response rating, Velvetleaf (velvetleaf; [8]): 5
Plant response rating, Velvetleaf (velvetleaf; [9]): 5
Plant response rating, Velvetleaf (velvetleaf; [10]): 5
Plant response rating, Velvetleaf (velvetleaf; [4]): 0
Plant response rating, Velvetleaf (velvetleaf; [5]): 0

Cc1ccccc1NC(=O)C1C(=O)NCC1c1cc(F)c(F)c(F)c1 (racemic) [Compound 35]
Plant response rating, Wheat (wheat; [1]): 40
Plant response rating, Wheat (wheat; [2]): 0
Plant response rating, Rice (rice): 0
Plant response rating, Sedge, Umbrella (sedge, umbrella): 0
Plant response rating, Barnyardgrass (barnyardgrass): 0
Blackgrass plant response rating (blackgrass; [3]): 0
Plant response rating, Blackgrass (blackgrass; [4]): 0
Plant response rating, Blackgrass (blackgrass; [5]): 5
Plant response rating, Blackgrass (blackgrass; [6]): 50
Plant response rating, Wheat (wheat (winter wheat); [4]): 0
Plant response rating, Wheat (wheat (winter wheat); [5]): 10
Crabgrass, Large plant response rating (crabgrass, large; [3]): 95
Plant response rating, Crabgrass, Large (crabgrass, large; [4]): 98
Plant response rating, Crabgrass, Large (crabgrass, large; [5]): 100
Plant response rating, Crabgrass, Large (crabgrass, large; [6]): 100
Plant response rating, Johnsongrass (johnsongrass; [4]): 0
Plant response rating, Johnsongrass (johnsongrass; [5]): 0
Plant response rating, Pigweed (pigweed; [4]): 0
Plant response rating, Pigweed (pigweed; [5]): 0
Plant response rating, Ragweed (ragweed; [4]): 0
Plant response rating, Ragweed (ragweed; [5]): 0
Plant response rating, Velvetleaf (velvetleaf; [4]): 20
Plant response rating, Velvetleaf (velvetleaf; [5]): 20

O=C1NCC(c2ccc(Cl)c(F)c2)C1C(=O)Nc1ccccc1F (centres unmarked) [Compound 53]
Plant response rating, Wheat (wheat; [11]): 0
Plant response rating, Wheat (wheat; [12]): 0
Wheat plant response rating (wheat; [13]): 0
Plant response rating, Wheat (wheat; [14]): 20
Plant response rating, Rice (rice): 0
Plant response rating, Sedge, Umbrella (sedge, umbrella): 20
Plant response rating, Barnyardgrass (barnyardgrass): 0
Blackgrass plant response rating (blackgrass; [3]): 0
Plant response rating, Blackgrass (blackgrass; [4]): 0
Plant response rating, Blackgrass (blackgrass; [5]): 0
Plant response rating, Blackgrass (blackgrass; [6]): 0
Plant response rating, Wheat (wheat (winter wheat); [4]): 0
Plant response rating, Wheat (wheat (winter wheat); [5]): 0
Crabgrass, Large plant response rating (crabgrass, large; [3]): 80
Plant response rating, Crabgrass, Large (crabgrass, large; [4]): 85
Plant response rating, Crabgrass, Large (crabgrass, large; [5]): 90
Plant response rating, Crabgrass, Large (crabgrass, large; [6]): 90
Plant response rating, Johnsongrass (johnsongrass; [4]): 0
Plant response rating, Johnsongrass (johnsongrass; [5]): 0
Plant response rating, Pigweed (pigweed; [4]): 25
Plant response rating, Pigweed (pigweed; [5]): 25
Plant response rating, Ragweed (ragweed; [4]): 10
Plant response rating, Ragweed (ragweed; [5]): 10
Plant response rating, Velvetleaf (velvetleaf; [4]): 0
Plant response rating, Velvetleaf (velvetleaf; [5]): 0

O=C1NCC(c2ccc(F)c(Cl)c2)C1C(=O)Nc1cccc(F)c1F (centres unmarked) [Compound 59]
Plant response rating, Wheat (wheat; [11]): 0
Plant response rating, Wheat (wheat; [12]): 60
Wheat plant response rating (wheat; [13]): 0
Plant response rating, Wheat (wheat; [14]): 0
Plant response rating, Rice (rice): 20
Plant response rating, Sedge, Umbrella (sedge, umbrella): 60
Plant response rating, Barnyardgrass (barnyardgrass): 40
Blackgrass plant response rating (blackgrass; [3]): 0
Plant response rating, Blackgrass (blackgrass; [4]): 0
Plant response rating, Blackgrass (blackgrass; [5]): 30
Plant response rating, Blackgrass (blackgrass; [6]): 60
Plant response rating, Wheat (wheat (winter wheat); [4]): 0
Plant response rating, Wheat (wheat (winter wheat); [5]): 0
Crabgrass, Large plant response rating (crabgrass, large; [3]): 85
Plant response rating, Crabgrass, Large (crabgrass, large; [4]): 85
Plant response rating, Crabgrass, Large (crabgrass, large; [5]): 90
Plant response rating, Crabgrass, Large (crabgrass, large; [6]): 100
Plant response rating, Johnsongrass (johnsongrass; [4]): 0
Plant response rating, Johnsongrass (johnsongrass; [5]): 0
Plant response rating, Pigweed (pigweed; [4]): 35
Plant response rating, Ragweed (ragweed; [4]): 0
Plant response rating, Ragweed (ragweed; [5]): 0
Plant response rating, Velvetleaf (velvetleaf; [4]): 0
Plant response rating, Velvetleaf (velvetleaf; [5]): 0
